The NIST ThermoML archive (doi:10.1016/j.fluid.2014.06.024)

Assay: molar heat capacity at constant pressure; xn = mol fraction of the nth substance listed
Settings: 101 kPa, Liquid, Small sample (50 mg) DSC

C1CCOCC1 [tetrahydropyran] + Cc1ccccc1
molar heat capacity at constant pressure [J/K/mol]
Settings	298.15 K	303.15 K	308.15 K
x1 = 0.0937	157	158.5	160.08
x1 = 0.1369	156.86	158.39	159.99
x1 = 0.1932	156.64	158.18	159.81
x1 = 0.2308	156.46	158.01	159.65
x1 = 0.2894	156.15	157.71	159.37
x1 = 0.3187	155.98	157.54	159.22
x1 = 0.3507	155.79	157.35	159.04
x1 = 0.3916	155.52	157.09	158.79
x1 = 0.4206	155.32	156.9	158.61
x1 = 0.4618	155.02	156.61	158.34
x1 = 0.4906	154.81	156.4	158.14
x1 = 0.5137	154.63	156.23	157.98
x1 = 0.5517	154.32	155.94	157.71
x1 = 0.5907	154	155.62	157.42
x1 = 0.6208	153.74	155.38	157.19
x1 = 0.6623	153.37	155.02	156.86
x1 = 0.6987	153.03	154.69	156.55
x1 = 0.7135	152.89	154.56	156.42
x1 = 0.751	152.52	154.2	156.08
x1 = 0.7917	152.1	153.79	155.68
x1 = 0.8246	151.75	153.44	155.34
x1 = 0.8516	151.45	153.14	155.05
x1 = 0.8914	150.99	152.67	154.58
x1 = 0.9123	150.74	152.41	154.32

Cc1ccccc1C [1,2-dimethylbenzene] + C1CCOCC1
molar heat capacity at constant pressure [J/K/mol]
Settings	298.15 K	303.15 K	308.15 K
x2 = 0.0918	184.41	186	187.56
x2 = 0.1317	183.03	184.64	186.23
x2 = 0.1765	181.48	183.1	184.72
x2 = 0.2108	180.29	181.92	183.55
x2 = 0.2543	178.76	180.4	182.06
x2 = 0.2876	177.59	179.23	180.91
x2 = 0.3105	176.77	178.42	180.11
x2 = 0.3651	174.81	176.47	178.18
x2 = 0.4187	172.86	174.53	176.26
x2 = 0.4498	171.71	173.38	175.13
x2 = 0.491	170.18	171.85	173.62
x2 = 0.5217	169.03	170.7	172.47
x2 = 0.5518	167.88	169.56	171.34
x2 = 0.5871	166.53	168.2	170
x2 = 0.6218	165.19	166.86	168.66
x2 = 0.6617	163.62	165.29	167.1
x2 = 0.6901	162.5	164.16	165.98
x2 = 0.7219	161.23	162.89	164.71
x2 = 0.7561	159.85	161.5	163.33
x2 = 0.7918	158.39	160.04	161.87
x2 = 0.8231	157.11	158.75	160.58
x2 = 0.8651	155.36	156.99	158.83
x2 = 0.8902	154.31	155.93	157.78
x2 = 0.9234	152.9	154.52	156.37

C1CCOCC1 [tetrahydropyran] + c1ccccc1
molar heat capacity at constant pressure [J/K/mol]
Settings	298.15 K	303.15 K	308.15 K
x1 = 0.0859	136.89	138.21	139.54
x1 = 0.1279	137.71	139.06	140.44
x1 = 0.1598	138.32	139.7	141.1
x1 = 0.1982	139.05	140.45	141.88
x1 = 0.2254	139.56	140.97	142.43
x1 = 0.2657	140.3	141.72	143.21
x1 = 0.3017	140.94	142.38	143.89
x1 = 0.3509	141.8	143.26	144.8
x1 = 0.3898	142.45	143.93	145.5
x1 = 0.4176	142.91	144.39	145.99
x1 = 0.4428	143.31	144.81	146.42
x1 = 0.4987	144.17	145.7	147.36
x1 = 0.5234	144.54	146.08	147.76
x1 = 0.5592	145.05	146.61	148.32
x1 = 0.5983	145.58	147.17	148.91
x1 = 0.6132	145.78	147.37	149.13
x1 = 0.6478	146.23	147.84	149.63
x1 = 0.6876	146.71	148.35	150.17
x1 = 0.7231	147.12	148.78	150.63
x1 = 0.7623	147.55	149.22	151.1
x1 = 0.7905	147.85	149.53	151.42
x1 = 0.8217	148.15	149.84	151.75
x1 = 0.8507	148.43	150.12	152.04
x1 = 0.9003	148.86	150.54	152.47
